In patent US7943664B2, “Phosphate binding materials and their uses” (Medical Research Council, priority 2008, dated 2011):

What was measured:
[1] = In vitro phosphate binding at physiological concentration; assay type: physicochemical
Experimental: An exemplary assay for determining phosphate binding is reported in the example 2.1 in which equal masses of ferrihydrite (e.g. 53.6 mg), or indeed any other binder used as a comparison, and a phosphate binder of the present invention were assayed to determine the percentage of phosphate they are capable of binding under physiological conditions. In general, the mass of the materials used in the assay may be between 10 mg and 80 mg inclusive in a 20 mL assay. […]
A solution containing 10 mM phosphate, a physiologically relevant concentration, and 0.9% NaCl was adjusted to pH 3, pH 5 and finally pH 7. […] The percentage of phosphate binding was calculated according to: Phosphate binding=(1−([P]t0−[P]ti)/[P]ti)×100 […]
Iron and phosphorus contents of solutions or solids (including wet solids) were measured using a JY2000-2 ICPOES (Horiba Jobin Yvon Ltd., Stanmore, U.K.) at the iron specific wavelength of 259.940 nm, and at the phosphorus wavelengths of 177.440 and/or 214.914 nm. […] The percentage of iron in solution or solid phase was determined by the difference between the starting iron content and either the iron in the soluble phase or the iron in the solid phase depending on the assay. […]

[2] = Langmuir isotherms, determination of affinity and capacity; assay type: physicochemical; conditions: Langmuir isotherm at pH 5, 10 mM phosphate, 0.9% NaCl, binder mass 13.4-80.4 mg
Experimental: The Langmuir isotherms were obtained using the same methodology as in Autissier et al. (2007), except in vitro solutions also contained 0.9% NaCl to make the assay better simulate physiological conditions. These Langmuir isotherms were generated at pH 5 and experimental conditions were similar to those in “Phosphate binding at physiological concentration” except the mass of binders was varied from 13.4-80.4 mg.
We further compared the phosphate binding abilities of FeOH Ad100, FeOH Ad100 SiO2, and lanthanum using Langmuir isotherms. The Langmuir equation relates the adsorption of molecules on a solid surface to a concentration and was adapted to determine the affinity and capacity of the above noted phosphate binders:
C=concentration of adsorbate unbound in mM
Cad/m=mmol of adsorbate bound per g binder
It was not possible to determine these values for Renagel because its low affinity required a higher concentration of phosphate than the physiologically relevant concentration (10 mM) that was tested in this experiment. Langmuir isotherms were generated at pH 5 and experimental conditions were similar to those in FIGS. 2a/b, except the mass of binders was varied from 13.4-80.4 mg.

O=C([O-])[O-].O=C([O-])[O-].O=C([O-])[O-].[La+3].[La+3] [Lanthanum Carbonate, Lanthanum carbonate]
phosphate binding ([1]; 20 mL 10 mM phosphate, 0.9% NaCl, 54 mg (53.6 mg) binder, pH 3 for 60 min then pH 5 for 60 min, sequentially (FIG. 2a/b)): 70-85% | phosphate binding ([1]; binder exposed directly to the solution at pH 5 for 1 hour, without pre-conditioning at pH 3 (FIG. 3)): ≈ 30% | K1 (Affinity) [2]: 1.6 | K2 (Capacity) ([2]; unit printed for K2, not in the table): 1.0 mmol P/g binder
